Results on five compounds are retold here after US5708015A, “Method for using pharmaceutical compositions containing 2-(2-alkyphenyl-amino)-thiazolines as adrenergic agents” (Allergan, priority 1996, dated 1998).

Like-named read-outs stand apart in the source and are kept apart here.

Experiment [1] addresses α1 adrenergic receptor (human cerebral cortex membranes). The experiment is described as follows: Alpha1 (human brain) receptor binding assay. The note with it: 22° C., 30 minutes, [3H] radioligand. An excerpt: (§1) The present compound or compounds may be included in a medication composition together with one or more other components to provide a medication composition which can be effectively administered. Such other components, e.g., carriers, anti-oxidants, bulking agents and the like, may be chosen from those materials which are conventional and well known in the art, e.g., as being included in medication compositions with α2 agonists. Whereas the effective dose of the compounds of the present compositions will depend on the nature of the host mammal and the specific diesease or condition treated it is anticipated that an effective daily dose of the compounds is in the range of 1 microgramm--10 mg per kg/body weight of the host. The ability of the compounds within the present invention to bind strongly and selectively to α2 adrenergic receptors in preference over α1 adrenergic receptors was confirmed by the following assay procedures which are generally recognized in the art to provide pertinent information with respect to the adrenergic activity of the compounds assayed: alpha1 (human brain) assay, alpha2 A (HT-29 cells) assay, and alpha2 B (rat kidney) assay. A description of these assay procedures is as follows.
Membrane preparation: Membrane suspensions were prepared from human cerebral cortex (HCC), HT-29 cells (HT) and rat kidney cortex (RtKC), as applicable. Tissues were homogenized in iced-cold buffer [250 mM sucrose, 5 mM tris, pH 7.4 (RtKC), or 50 mM Tris-HCl, 5 mM EDTA, pH 7.4 (HCC, HT)] with a Polytron homogenizer for 30 secs at setting #7, and centrifuged for 10 minutes at 300×g at 4° C. The supernatant was diluted 1:2 with 50 mM Tris-HCl buffer, pH 7.4 (RkCC, HCC) or pH 8.0 (HT) then centrifuged at 49,000×g for 15-20 minutes. The pellet fraction was washed 3 times (resuspended in Tris-HCl buffer and centrifuged for 15-20 minutes at 49,000×g). The pellet was then stored at -80° C. until the binding assay. Binding studies: The radioligands [^3 H] rauwolscine (specific activity 80 Ci/mmol) and [^3 H] prazosin (specific activity 77 Ci/mmol) were obtained from New England Nuclear, Boston, Mass. Frozen membrane pellet was resuspended in glycine glycine buffer, pH 7.6. […] The filters were then oven dried and transferred to scintillation vials containing 5 mls of Beckman's Ready Protein^R scintillation cocktail for counting. […] Protein concentrations were determined with a protein assay kit from Bio Rad. Binding isotherms, equilibrium dissociation and affinity constants were analyzed and determined by the non-linear least squares curve fitting program AccuFit Competition/Saturation by Beckman. […]

For experiment [2], the target named is T1, α2 A adrenergic receptor (HT-29 cells) (Homo sapiens, UniProt P08913).
T1 construct: Membrane suspensions were prepared from human cerebral cortex (HCC), HT-29 cells (HT) and rat kidney cortex (RtKC); endogenous in cells; host or cells: HT-29 cells
The experiment is described as follows: Alpha2 A (HT-29 cells) receptor binding assay.
From the text: as §1
(§2) Membrane preparation: Membrane suspensions were prepared from human cerebral cortex (HCC), HT-29 cells (HT) and rat kidney cortex (RtKC), as applicable. Tissues were homogenized in iced-cold buffer [250 mM sucrose, 5 mM tris, pH 7.4 (RtKC), or 50 mM Tris-HCl, 5 mM EDTA, pH 7.4 (HCC, HT)] with a Polytron homogenizer for 30 secs at setting #7, and centrifuged for 10 minutes at 300×g at 4° C. The supernatant was diluted 1:2 with 50 mM Tris-HCl buffer, pH 7.4 (RkCC, HCC) or pH 8.0 (HT) then centrifuged at 49,000×g for 15-20 minutes. The pellet fraction was washed 3 times (resuspended in Tris-HCl buffer and centrifuged for 15-20 minutes at 49,000×g). The pellet was then stored at -80° C. until the binding assay. Binding studies: The radioligands [^3 H] rauwolscine (specific activity 80 Ci/mmol) and [^3 H] prazosin (specific activity 77 Ci/mmol) were obtained from New England Nuclear, Boston, Mass. Frozen membrane pellet was resuspended in glycine glycine buffer, pH 7.6. Membrane protein homogenate (150-300 μg) was incubated with radioligand under the following conditions: 22° C., 30 minutes (HCC, HT), 0° C., 120 minutes (RtKC), in a final volume of 500 μl. At the end of the incubation period, the samples were filtered through glass fiber filters (Whatman GF/B) in a 96-well cell harvester and rapidly washed four times with 4 mls of iced-cold 50 mM Tris-HCl buffer. The filters were then oven dried and transferred to scintillation vials containing 5 mls of Beckman's Ready Protein^R scintillation cocktail for counting. Non-specific binding was defined by 10 μM phentolamine. Protein concentrations were determined with a protein assay kit from Bio Rad. Binding isotherms, equilibrium dissociation and affinity constants were analyzed and determined by the non-linear least squares curve fitting program AccuFit Competition/Saturation by Beckman.
(§3) As it will be recognized by those skilled in the art from the forogoing descriptions, the described assays are radioligand assays which measure the binding of the test compound to the respective α1 or α2 receptor. […]

Experiment [3] concerns the target T2, α2 B adrenergic receptor (rat kidney cortex membranes) (Rattus norvegicus, UniProt P19328).
T2 construct: Membrane suspensions were prepared from human cerebral cortex (HCC), HT-29 cells (HT) and rat kidney cortex (RtKC); from tissue; host or cells: rat kidney cortex membranes
T2 sequence (P19328 1-453): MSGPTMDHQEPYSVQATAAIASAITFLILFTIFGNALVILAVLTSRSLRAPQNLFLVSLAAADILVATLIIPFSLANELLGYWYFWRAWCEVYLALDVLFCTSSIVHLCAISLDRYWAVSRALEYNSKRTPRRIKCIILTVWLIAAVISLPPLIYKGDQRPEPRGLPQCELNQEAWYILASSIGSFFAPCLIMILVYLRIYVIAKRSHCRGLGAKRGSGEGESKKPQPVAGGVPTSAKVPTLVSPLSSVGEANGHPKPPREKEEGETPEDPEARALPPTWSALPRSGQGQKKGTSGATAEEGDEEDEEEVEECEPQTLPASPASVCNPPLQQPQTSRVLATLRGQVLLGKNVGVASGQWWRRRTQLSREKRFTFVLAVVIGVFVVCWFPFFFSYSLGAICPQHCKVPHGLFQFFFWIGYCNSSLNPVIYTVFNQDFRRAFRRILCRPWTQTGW
The experiment is described as follows: Alpha2 B (rat kidney) receptor binding assay.
From the text: as §1, §2, §3

T1 sequence (P08913 whole entry): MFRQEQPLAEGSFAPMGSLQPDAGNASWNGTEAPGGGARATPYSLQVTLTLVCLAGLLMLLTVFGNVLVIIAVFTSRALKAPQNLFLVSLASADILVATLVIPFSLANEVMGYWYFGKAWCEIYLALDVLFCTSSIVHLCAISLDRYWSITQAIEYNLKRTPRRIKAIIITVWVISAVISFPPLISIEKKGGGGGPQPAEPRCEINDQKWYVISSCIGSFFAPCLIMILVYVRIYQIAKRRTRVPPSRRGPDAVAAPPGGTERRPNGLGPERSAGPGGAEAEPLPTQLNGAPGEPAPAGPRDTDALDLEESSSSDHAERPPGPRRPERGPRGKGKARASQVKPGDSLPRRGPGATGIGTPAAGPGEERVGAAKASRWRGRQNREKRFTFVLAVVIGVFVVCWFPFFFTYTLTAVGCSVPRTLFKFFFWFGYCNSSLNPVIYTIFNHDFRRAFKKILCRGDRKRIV

In general, Ki refers to the dissociation constant of the complex between target and ligand, obtained from inhibition or displacement. As to `Cc1ccccc1NC1=NCCO1` [Compound 1a], the Ki in experiment [1] came to 7400 nM; in experiment [2], 35.7 nM; in experiment [3] (rat kidney cortex membranes, 0° C., 120 minutes, [3H] radioligand, read-out: α2 B Ki) it was 208 nM.
For `Cc1cccc(NC2=NCCO2)c1C` [Compound 1, 2-[2,3-Dimethylphenylamino)-oxazoline], the Ki in experiment [1] turned out to be 1210 nM; in experiment [2], 5.1 nM; in experiment [3] it was 8.5 nM.
For `Cc1cccc(N=C2NCCN2)c1C` [Compound 3, 2-(2,3-Dimethylphenylimino)-imidazolidine], in that order: 434 nM, 5.8 nM and 1.5 nM.
For the compound `c1cc2c(c(NC3=NCCO3)c1)CCCC2` [Compound 2, 2-(5,6,7,8-tetrahydronaphthylamino)-oxazoline], the Ki in experiment [2] is 2.2 nM; in experiment [3], 6.2 nM.
`Cc1ccccc1N=C1NCCN1` [Compound 3a, 2-(2-methylphenylimino)-imidazolidine]: the values for the Ki in experiment [1], in experiment [2] and in experiment [3] were 2170 nM, 7.5 nM and 25.3 nM, respectively.
